The experiment deals with Dihydrofolate reductase (Enterococcus faecium).
Compound `CCOC(=O)c1ccc(NCc2ccc3nc(N)nc(N)c3c2Cl)cc1` had a Delta G of -12.8 kcal.
The figure for `Nc1nc(N)c2cc(Sc3ccc(Cl)c(Cl)c3)ccc2n1` is -12.2 kcal; for `Nc1nc(N)c2c(CSc3ccc(Cl)cc3)cccc2n1` it is -10.9 kcal; for `Cc1c(NCc2ccc(C(=O)O)cc2)ccc2nc(N)nc(O)c12` it is -6.5 kcal.
The result for `Nc1nc(N)c2c(/C=C\c3ccc4ccccc4c3)cccc2n1` reads -11.1 kcal; that for `CCCCOC(=O)c1ccc(NCc2ccc3nc(N)nc(N)c3c2Cl)cc1`, -11.4 kcal.
`CCCCOC(=O)c1ccc(NCc2ccc3nc(N)nc(N)c3c2)cc1`: the Delta G is -11.2 kcal.
The result for `CCCCOC(=O)c1ccc(NCc2ccc3nc(N)nc(N)c3c2C)cc1` reads -12.1 kcal.
The figure for `CCOC(=O)c1ccc(NCc2ccc3nc(N)nc(O)c3c2)cc1` is -10.6 kcal; for `Nc1nc(N)c2cc(S(=O)(=O)c3ccc4ccccc4c3)ccc2n1` it is -12.4 kcal; for `Nc1nc(N)c2cc(S(=O)(=O)c3ccc(Cl)c(Cl)c3)ccc2n1` it is -13.4 kcal.
The result for `Nc1nc(S)nc2ccc(Sc3ccc4ccccc4c3)cc12` reads -7.4 kcal; that for `Nc1nc(O)c2cc(Sc3ccc(Cl)c(Cl)c3)ccc2n1`, -9.1 kcal; that for `O=c1[nH]c(=S)c2cc(Sc3ccc4ccccc4c3)ccc2[nH]1`, -6.9 kcal.
Consider `Nc1nc(N)c2c(Cl)c(CNc3ccc(C(=O)O)cc3)ccc2n1`, for which the Delta G was -12.3 kcal.
The figure for `Nc1nc(N)c2cc(CNc3ccc(C(=O)O)cc3)ccc2n1` is -13 kcal.
The result for `Nc1ncnc2ccc(Sc3ccc4ccccc4c3)cc12` reads -6.5 kcal; that for `Cc1c(CNc2ccc(C(=O)O)cc2)ccc2nc(N)nc(N)c12`, -11.8 kcal; that for `Nc1nc(N)c2c(CCc3ccc4ccccc4c3)cccc2n1`, -11.9 kcal.
Regarding `Nc1nc(O)c2cc(S(=O)(=O)c3ccc(Cl)c(Cl)c3)ccc2n1`, the Delta G was -8.2 kcal.
The result for `Nc1nc(O)c2c(S(=O)(=O)c3ccc4ccccc4c3)cccc2n1` reads -9 kcal; that for `Nc1nc(O)nc2ccc(Sc3ccc4ccccc4c3)cc12`, -6.9 kcal.
Compound `Nc1nc(O)c2cc(CNc3ccc(C(=O)O)cc3)ccc2n1` displayed a Delta G of -8.8 kcal.
In turn, `Nc1nc(N)c2c([S+]([O-])c3ccc4ccccc4c3)cccc2n1` (stereo not drawn) gave a Delta G of -6.9 kcal.
The figure for `O=c1[nH]c(=O)c2cc(Sc3ccc4ccccc4c3)ccc2[nH]1` is -6.9 kcal.
The figure for `Sc1nc(S)c2cc(Sc3ccc4ccccc4c3)ccc2n1` is -6 kcal; for `Nc1nc(N)c2c(/C=C/c3ccc4ccccc4c3)cccc2n1` it is -10.7 kcal; for `Nc1nc(N)c2c(Sc3ccc(Cl)c(Cl)c3)cccc2n1` it is -9.9 kcal.
`Nc1nc(O)c2c(Sc3ccc4ccccc4c3)cccc2n1` displayed a Delta G of -7.4 kcal.
The figure for `Nc1nc(N)c2cc(Sc3cccc(C(F)(F)F)c3)ccc2n1` is -13.4 kcal; for `CCOC(=O)c1ccc(NCc2ccc3nc(N)nc(N)c3c2C)cc1` it is -12.3 kcal; for `Nc1nc(N)c2c([S+]([O-])c3ccc(Cl)c(Cl)c3)cccc2n1` (stereo not drawn) it is -7.3 kcal.
The result for `Nc1ncnc2ccc([S+]([O-])c3ccc4ccccc4c3)cc12` (stereo not drawn) reads -7.2 kcal.
The figure for `Nc1ncnc2ccc(S(=O)(=O)c3ccc4ccccc4c3)cc12` is -5.8 kcal; for `Nc1nc(S)c2cc(S(=O)(=O)c3ccc4ccccc4c3)ccc2n1` it is -8 kcal.
Regarding `Nc1nc(N)c2c(S(=O)(=O)c3ccc4ccccc4c3)cccc2n1`, the Delta G was -6.5 kcal.
As to `Nc1nc(O)c2cc(S(=O)(=O)c3ccc4ccccc4c3)ccc2n1`, the Delta G was -9.6 kcal.
The result for `CCOC(=O)c1ccc(CNc2ccc3nc(N)nc(N)c3c2)cc1` reads -11 kcal; that for `Nc1nc(S)c2cc(Sc3ccc4ccccc4c3)ccc2n1`, -9.3 kcal.
The figure for `CCOC(=O)c1ccc(CNc2ccc3nc(N)nc(O)c3c2C)cc1` is -7.1 kcal.
The figure for `CCOC(=O)c1ccc(CNc2ccc3nc(N)nc(O)c3c2Cl)cc1` is -9.3 kcal.
`Nc1nc(O)c2cc(NCc3ccc(C(=O)O)cc3)ccc2n1` gave a Delta G of -7.2 kcal.
The figure for `CCOC(=O)c1ccc(CNc2ccc3nc(N)nc(N)c3c2Cl)cc1` is -12.2 kcal; for `Nc1nc(N)c2c(S(=O)(=O)c3ccc(Cl)c(Cl)c3)cccc2n1` it is -9 kcal.
The figure for `Nc1nc(N)c2c(Sc3ccc4ccccc4c3)cccc2n1` is -10.9 kcal.
The result for `Nc1nc(O)c2cc([S+]([O-])c3ccc4ccccc4c3)ccc2n1` (stereo not drawn) reads -8.2 kcal; that for `CCOC(=O)c1ccc(CNc2ccc3nc(N)nc(O)c3c2)cc1`, -8.6 kcal.
With `Nc1nc(N)c2cc([S+]([O-])c3ccc4ccccc4c3)ccc2n1` (stereo not drawn), the Delta G is -12.8 kcal.
In the case of `CCOC(=O)c1ccc(CNc2ccc3nc(N)nc(N)c3c2C)cc1`, the Delta G is -13.1 kcal.
The result for `Cc1c(CNc2ccc(C(=O)NC(CC(=O)O)C(=O)O)cc2)ccc2nc(N)nc(N)c12` (stereo not drawn) reads -12.7 kcal.
The compound `CCOC(=O)c1ccc(NCc2ccc3nc(N)nc(N)c3c2)cc1` had a Delta G of -11.4 kcal.
The result for `Oc1nc(S)nc2ccc(Sc3ccc4ccccc4c3)cc12` reads -6.2 kcal; that for `Nc1nc(O)c2cc(Sc3ccc4ccccc4c3)ccc2n1`, -10.2 kcal.

(Values after ChEMBL document CHEMBL1121631, “Quantitative structure-activity relationships by distance geometry: systematic analysis of dihydrofolate reductase inhibitors” (J Med Chem, 1980).)
